Values of other authors in patent publication US10898503B2, “Cleavable drug conjugates, compositions thereof and methods of use” (priority 2013, dated 2021).
Where two headings read alike, the source gives them in different places.

Columns and labels:
[1] = patients
[2] = in vivo

COc1cccc2c1C(=O)c1c(O)c3c(c(O)c1C2=O)C[C@@](O)(C(=O)CO)C[C@@H]3O[C@H]1C[C@H](N)[C@H](O)[C@H](C)O1 [Doxorubicin]
chance of developing cardiomyopathy ([1]; cumulative dose of 300 mg/m^2): 1-2% | chance of developing cardiomyopathy ([1]; cumulative dose of 400 mg/m^2): 3-5% | chance of developing cardiomyopathy ([1]; cumulative dose of 450 mg/m^2): 5 to 8% | chance of developing cardiomyopathy ([1]; cumulative dose of 500 mg/m^2): 6-20%

enfuvirtide
half-life [2]: four
